These results are taken from ChEMBL document CHEMBL5303573, “Mapping human microbiome drug metabolism by gut bacteria and their genes” (Nature, 2019).

Data set [1] can be described thus: The drug is tested on Bacteroides fragilis strain: ATCC43859 for biotransformation. The drug concentrations were measured before and after a 12-h incubation by liquid-chromatography-coupled mass spectrometry (LC–MS). As to conditions: 2 µM.
The conditions of data set [2]: bacteroides fragilis, 12 h, 2 µM.
Description: The drug is tested on Bacteroides fragilis strain: 3397 (T10) for biotransformation. The drug concentrations were measured before and after a 12-h incubation by liquid-chromatography-coupled mass spectrometry (LC–MS)
Data set [3] is described as follows: The drug is tested on Bacteroides coprophilus strain: DSM18228 for biotransformation. The drug concentrations were measured before and after a 12-h incubation by liquid-chromatography-coupled mass spectrometry (LC–MS). As to conditions: 2 µM.
Data set [4] in a line: The drug is tested on Bacteroides uniformis strain: ATCC8492 for biotransformation. The drug concentrations were measured before and after a 12-h incubation by liquid-chromatography-coupled mass spectrometry (LC–MS). The note with it: 2 µM.
Data set [5] can be described thus: The drug is tested on Eubacterium hallii strain: DSM3353 for biotransformation. The drug concentrations were measured before and after a 12-h incubation by liquid-chromatography-coupled mass spectrometry (LC–MS). As to conditions: anaerobutyricum hallii, 2 µM.
For data set [6] the following is noted: limosilactobacillus reuteri cf48-3a, 12 h, 2 µM.
Description: The drug is tested on Lactobacillus reuteri CF48-3A strain: BEI HM-102 for biotransformation. The drug concentrations were measured before and after a 12-h incubation by liquid-chromatography-coupled mass spectrometry (LC–MS)
A short description of data set [7]: The drug is tested on Enterococcus faecalis strain: V583 for biotransformation. The drug concentrations were measured before and after a 12-h incubation by liquid-chromatography-coupled mass spectrometry (LC–MS). The note with it: 2 µM.
The nature of data set [8]: The drug is tested on Clostridium sp. strain: fecal isolate for biotransformation. The drug concentrations were measured before and after a 12-h incubation by liquid-chromatography-coupled mass spectrometry (LC–MS). The note with it: 2 µM.
For data set [9] the following is noted: segatella copri, 12 h, 2 µM.
Description: The drug is tested on Prevotella copri strain: DSM18205 for biotransformation. The drug concentrations were measured before and after a 12-h incubation by liquid-chromatography-coupled mass spectrometry (LC–MS)
Data set [10] is described as follows: The drug is tested on Bacteroides ovatus strain: ATCC8483 for biotransformation. The drug concentrations were measured before and after a 12-h incubation by liquid-chromatography-coupled mass spectrometry (LC–MS). The note with it: 2 µM.
Data set [11] in a line: The drug is tested on Bifidobacterium breve strain: DSM20213 for biotransformation. The drug concentrations were measured before and after a 12-h incubation by liquid-chromatography-coupled mass spectrometry (LC–MS). As to conditions: 2 µM.
For data set [12] the following is noted: akkermansia muciniphila, 12 h, 2 µM.
Description: The drug is tested on Akkermansia muciniphila strain: ATCC BAA-835 for biotransformation. The drug concentrations were measured before and after a 12-h incubation by liquid-chromatography-coupled mass spectrometry (LC–MS)
The nature of data set [13]: The drug is tested on Odoribacter splanchnicus strain: fecal isolate for biotransformation. The drug concentrations were measured before and after a 12-h incubation by liquid-chromatography-coupled mass spectrometry (LC–MS). The note with it: 2 µM.
For data set [14] the following is noted: bifidobacterium adolescentis, 12 h, 2 µM.
Description: The drug is tested on Bifidobacterium adolescentis strain: ATCC 15703 for biotransformation. The drug concentrations were measured before and after a 12-h incubation by liquid-chromatography-coupled mass spectrometry (LC–MS)
Data set [15] can be described thus: The drug is tested on Blautia hansenii strain: DSM20583 for biotransformation. The drug concentrations were measured before and after a 12-h incubation by liquid-chromatography-coupled mass spectrometry (LC–MS). The note with it: 2 µM.
A short description of data set [16]: The drug is tested on Clostridium sporogenes strain: ATCC15579 for biotransformation. The drug concentrations were measured before and after a 12-h incubation by liquid-chromatography-coupled mass spectrometry (LC–MS). The note with it: 2 µM.
For data set [17] the following is noted: roseburia intestinalis, 12 h, 2 µM.
Description: The drug is tested on Roseburia intestinalis strain: L1-82 for biotransformation. The drug concentrations were measured before and after a 12-h incubation by liquid-chromatography-coupled mass spectrometry (LC–MS)
Data set [18] can be described thus: The drug is tested on Eubacterium ventriosum strain: ATCC27560 for biotransformation. The drug concentrations were measured before and after a 12-h incubation by liquid-chromatography-coupled mass spectrometry (LC–MS). As to conditions: 2 µM. On the set-up: dose 2 uM, timepoint 0 vs 12 hours. The class given is ADME.

`CC(C)(C(=O)O)c1ccc(C(O)CCCN2CCC(C(O)(c3ccccc3)c3ccccc3)CC2)cc1` (centres undefined) [FEXOFENADINE]: the “Bacterial Biotransformation” value in data set [1], in data set [2], in data set [3], in data set [4], in data set [5] and in data set [6] was “Compound NOT metabolized” throughout. Also, the “Bacterial Biotransformation” value in data set [7], in data set [8], in data set [9], in data set [10], in data set [11] and in data set [12] was “Compound NOT metabolized” in each case. Further, the “Bacterial Biotransformation” value in data set [13], in data set [14], in data set [15], in [16] and in data set [17] was “Compound NOT metabolized” in each case.

As for `CC(=O)OCC(CCn1cnc2cnc(N)nc21)COC(C)=O` [FAMCICLOVIR], the “Bacterial Biotransformation” value in [1] is given as “Compound metabolized”; in data set [2] it was “Compound metabolized”; in data set [3], “Compound metabolized”; in [4], “Compound metabolized”; in data set [5], “Compound NOT metabolized”; in [6], “Compound NOT metabolized”. The “Bacterial Biotransformation” value in data set [8] is reported as “Compound NOT metabolized”; in [9], “Compound metabolized”; in data set [10], “Compound metabolized”; in [11] it was “Compound NOT metabolized”; in [12], “Compound NOT metabolized”; in data set [13] it was “Compound metabolized”. Moreover, the “Bacterial Biotransformation” value in data set [15], in [16], in data set [17] and in data set [18] was “Compound NOT metabolized” in each case.

With `CCN(CC)CCOC(=O)C(Cc1cccc2ccccc12)CC1CCCO1.O=C(O)C(=O)O` (centres undefined) [NAFRONYL OXALATE], the “Bacterial Biotransformation” value in data set [1] was “Compound NOT metabolized”; in data set [2] it was “Compound NOT metabolized”; in data set [4] it was “Compound metabolized”; in [5] it was “Compound NOT metabolized”; in data set [6] it was “Compound NOT metabolized”; in data set [7], “Compound NOT metabolized”. Further, the “Bacterial Biotransformation” value in data set [9] is given as “Compound metabolized”; in data set [10], “Compound NOT metabolized”; in [11], “Compound NOT metabolized”; in data set [12] it was “Compound NOT metabolized”; in [13] it was “Compound metabolized”; in [14], “Compound NOT metabolized”. Further, the “Bacterial Biotransformation” value in data set [15] is given as “Compound metabolized”; in data set [16], “Compound NOT metabolized”; in data set [17] it was “Compound NOT metabolized”; in [18], “Compound NOT metabolized”.
